Test [1] is described as follows: Inhibitory activity against thrombin.
Test [2] concerns the target Cyclin-dependent kinase 2 (Homo sapiens, UniProt P24941). As to the kind of experiment: Inhibition of Cyclin-dependent kinase 2.

The term Ki denotes a dissociation constant, usually derived from enzyme kinetics or from competition with a known ligand. Read a high Ki as a looser hold on the target. `Cc1cc(NS(=O)(=O)c2ccccc2)cc(OCCNc2ccncc2)c1` registered a Ki in test [1] of 23 nM.
On the same count and under the same terms, in the case of `C[C@@H]1CCN(C(=O)[C@H](CCCNC(=N)N)NS(=O)(=O)c2cccc3c2NC[C@H](C)C3)[C@@H](C(=O)O)C1` [ARGATROBAN] it was 1 nM.
In general, IC50 refers to the point on the concentration scale where inhibition reaches its midpoint. A high value points to weaker potency in that assay. In test [2], `O=C1NC2C=CC=CC2/C1=C/Nc1ccc(S(=O)(=O)Nc2nccs2)cc1` (stereo not given) came in with an IC50 of 1000 nM.
In turn, `N=C(N)NCCC[C@H](NC(=O)[C@@H]1CCN2CC[C@@](N)(Cc3ccccc3)C(=O)N12)C(=O)c1nccs1` came in with a Ki in test [1] of 2 nM. That is a single-digit nanomolar value.
In test [1], `N=C(N)c1ccc(C[C@@H](NC(=O)CNS(=O)(=O)c2ccc3ccccc3c2)C(=O)N2CCCCC2)cc1` returned a Ki of 7 nM. This Ki lies about 3.5-fold higher than the previous one.
